Columns and labels:
[1] = tested on: S. aureus ATCC 19636 (MSSA); experiment: In vivo efficacy, mouse peritonitis model of systemic infection (Test D), MSSA; settings: mice
Protocol: Antistaphylococcal efficacy in vivo was assessed in a mouse peritonitis model of systemic infection with S. aureus ATCC 19636 (MSSA) or ATCC 43300 (MRSA). These studies were conducted in full compliance with the standards established by the US National Research Council's Guide for the Care and Use of Laboratory Animals, and were approved by the Institutional Animal Care and Use Committee (IACUC) of Rutgers University. Groups of 4-6 female Swiss-Webster mice with an average weight of 25 g were infected intraperitoneally with a lethal inoculum of each bacterial strain in saline. The inoculum of S. aureus ATCC 43300 contained 1.0×10^8 CFUs/mL of bacteria, while the inoculum of S. aureus ATCC 19636 contained 0.8×10^7 CFUs/mL of bacteria. All the inocula also contained porcine mucin (Sigma-Aldrich, Co.) at a (w/v) percentage of 1.5% (in ATCC 19636 inocula) or 5% (in the ATCC 43300 inoculum). The differing compositions of the inocula of these S. aureus strains were selected based on the virulence of each strain, with MSSA ATCC 19636 being the more virulent strain and MRSA ATCC 43300 being the less virulent strain.
All compound and vehicle intravenous (i.v.) administrations were by tail vein injection, with 17 being formulated at 2.0 mg/mL and 44 being formulated at both 2.0 and 3.0 mg/ml in 10 mM citrate (pH 2.6).
In the MSSA ATCC 19636 experiments, the first dose of compound was administered 10 minutes after infection, with subsequent doses being administered at 12-minute intervals thereafter unless otherwise noted. In the MRSA studies, the first dose of compound was administered one hour after infection, with subsequent doses being administered at 12-minute intervals thereafter unless otherwise indicated.
The body temperatures of all mice were monitored for a period of 5 days after infection. Body temperatures were recorded at the Xiphoid process using a noninvasive infrared thermometer (Braintree Scientific, Inc., Braintree, MA). Infected mice with body temperatures ≤28.9° C. were viewed as being unable to recover from the infection and were euthanized.

[2] = tested on: MRSA; experiment: Antibacterial assay, broth microdilution MIC (Test A); assay type: cell-based; settings: Staphylococcus aureus, MIC values may be lower as solubility and aggregate formation may reduce observed activity
Protocol: (§1) Antibacterial activity can be determined as per Clinical and Laboratory Standards Institute (CLSI) guidelines using a broth microdilution assay in which log-phase bacteria are grown at 37° C. in appropriate medium containing two-fold serial dilutions of a compound to yield final concentrations ranging from 256 to 0.06 μg/mL. For determination of minimal inhibitory concentration (MIC) values, bacterial growth is monitored after 24 to 48 hours by measuring optical density at 600 nm.

[3] = tested on: MSSA; experiment: as above; assay type: cell-based; settings: Staphylococcus aureus, MIC values may be lower as solubility and aggregate formation may reduce observed activity
Protocol: as §1

[4] = tested on: S. aureus ATCC 43300 (MRSA); experiment: In vivo efficacy, mouse peritonitis model of systemic infection (Test D), MRSA; settings: mice, p.o., total dose 4.8 mg/mouse
[5] = i.v., 2x, total dose 1.8 mg/mouse
[6] = p.o., 1x, total dose 0.8 mg/mouse
[7] = p.o., 2x, total dose 1.6 mg/mouse
[8] = p.o., 3x, total dose 2.4 mg/mouse
[9] = p.o., 4x, total dose 3.2 mg/mouse
[10] = i.v., 1x, total dose 0.6 mg/mouse, first dose immediately prior to infection
[11] = i.v., 2x, total dose 1.2 mg/mouse, first dose immediately prior to infection, subsequent doses 15 minutes following
[12] = p.o., 1x, total dose 0.8 mg/mouse, first dose 5 minutes prior to infection
[13] = p.o., 2x, total dose 1.6 mg/mouse, first dose 5 minutes prior to infection, subsequent doses 15 minutes apart
[14] = p.o., 4x, total dose 3.2 mg/mouse, first dose 5 minutes prior to infection, subsequent doses 15 minutes apart
[15] = 6x (no footnote: first dose one hour after infection, 12-minute intervals)
[16] = 6x, first dose 5 minutes prior to infection, subsequent doses 12 minutes apart
[17] = 6x, first dose 10 minutes post-infection, subsequent doses 12 minutes apart

CN1CCC(C(=O)NC(=O)c2c(F)ccc(OCc3nc4cc(C(F)(F)F)cnc4s3)c2F)CC1 [Example 44]
100%: Survival (%) 24 Hrs [1, 5] | Survival (%) 48 Hrs [1, 5] | Survival (%) 72 Hrs [1, 5] | Survival (%) 24 Hrs [1, 7] | Survival (%) 48 Hrs [1, 7] | Survival (%) 72 Hrs [1, 7] | Survival (%) 24 Hrs [1, 8] | Survival (%) 48 Hrs [1, 8] | Survival (%) 72 Hrs [1, 8] | Survival (%) 24 Hrs [1, 9] | Survival (%) 48 Hrs [1, 9] | Survival (%) 72 Hrs [1, 9]
50%: Survival (%) 24 Hrs [1, 6] | Survival (%) 48 Hrs [1, 6] | Survival (%) 72 Hrs [1, 6]

CCC(=O)NC(=O)c1c(F)ccc(OCc2nc3cc(Cl)ccc3s2)c1F [Example 5]
2 µg/mL: MIC [2] | MIC [3]

CN1CCC(C(=O)NC(=O)c2c(F)ccc(OCc3nc4cc(Cl)cnc4s3)c2F)CC1 [Example 17]
50%: Survival (%) 48 Hrs [4, 15] | Survival (%) 72 Hrs [4, 15]
100%: Survival (%) 24 Hrs [1, 14] | Survival (%) 48 Hrs [1, 14] | Survival (%) 72 Hrs [1, 14] | Survival (%) 24 Hrs [4, 16] | Survival (%) 48 Hrs [4, 16] | Survival (%) 72 Hrs [4, 16] | Survival (%) 24 Hrs [4, 17] | Survival (%) 48 Hrs [4, 17] | Survival (%) 72 Hrs [4, 17]
0%: Survival (%) 24 Hrs [1, 10] | Survival (%) 48 Hrs [1, 10] | Survival (%) 72 Hrs [1, 10] | Survival (%) 24 Hrs [1, 11] | Survival (%) 48 Hrs [1, 11] | Survival (%) 72 Hrs [1, 11] | Survival (%) 24 Hrs [1, 12] | Survival (%) 48 Hrs [1, 12] | Survival (%) 72 Hrs [1, 12] | Survival (%) 24 Hrs [1, 13] | Survival (%) 48 Hrs [1, 13] | Survival (%) 72 Hrs [1, 13]
